According to patent publication US7404948B2, “Peptidic conjugates for alopecia prevention and treatment” (Institut Europeen de Biologie Cellulaire, priority 2003, dated 2008):
Non-standard residues stand in square brackets, D forms with d. hPhe = N[C@@H](CCc1ccccc1)C(=O)O

Test system: anagen-phase mouse vibrissae hair follicles
Assay: Growth of mouse vibrissae in vitro (hair follicle culture, Philpott technique)
Format: cell-based
Design: unit not given here
Settings: peptide 10^−7 M, A is acetic acid
Description: The Effects of Various Peptides on the Growth of Mouse Vibrissae In Vitro
The growth of the hair shaft of these hair follicles was followed for several days (Day 0 to Day 4). The results are reported in the table below for peptides 1- and 2-described above, for which A is acetic acid.

A-Arg-Lys-Asp-Val-DHomoPhe-NH2 [Peptide 1-]
growth of the hair shaft (Day 0): 0.00 | growth of the hair shaft (Day 1): 0.90 | growth of the hair shaft (Day 2): 1.38 | growth of the hair shaft (Day 3): 1.86 | growth of the hair shaft (Day 4): 1.87

Ac-Arg-Lys-Asp-Val-HomoPhe-NH2 (Ac-RKDV[hPhe]-NH2; also: acetate salt) [Peptide 2-]
growth of the hair shaft (Day 0): 0.00 | growth of the hair shaft (Day 1): 0.83 | growth of the hair shaft (Day 2): 1.46 | growth of the hair shaft (Day 3): 1.62 | growth of the hair shaft (Day 4): 1.62
